Broadly, the LD50 is the dose at which mortality reaches 50%.

SMILES strings stand for the structures. Read-outs that look alike come from different tables or passages of the source.

The text below walks through data of patent US3953456A, “Carbostyril derivatives and process for preparing the same” (Otsuka Pharmaceutical Co., Ltd., priority 1972, dated 1976).

One series relates to isoprenaline. The experiment in a line: Antagonistic activity against isoprenaline (β-blockers screening method) in anesthesized dogs: % inhibition of pulse increase and blood pressure reduction. The format is in vivo, male mongrel adult dogs. The conditions noted are these: isoprenaline 0.3 γ/Kg after 5 minutes; for Antagonistic Activity Against Isoprenaline (% Inhibition), Blood Pressure: pressure reduction by isoprenaline alone = 100%; for Antagonistic Activity Against Isoprenaline (% Inhibition), Pulse: pulse increase by isoprenaline alone = 100%. As for the experimental part:
The antagonistic activity of the compounds of this invention against isoprenaline was determined using the β-blockers screening method (C. E. Powell, I. H. Slater : J. Pharmac., 122, 480 (1958 )).
Male mongrel adult dogs, weighing 13 to 20 Kg were anesthesized with 30 mg/Kg of body weight of pentabarbital sodium administered intravenously. Each of the test compounds was then administered to the anesthesized dog at a dosage level of 30γ or 100γ/Kg of body weight from the femoral vein and after 5 minutes isoprenaline was administered to the dog through the femoral vein at a dosage level of 0.3 γ/Kg of body weight. the blood pressure and the pulse (H.R.) were then recorded on a polygraph through a pressure transducer and a tachometer operated by the R wave of the electrocardiograph, respectively, to determine % inhibitory activity of the test compound against the pulse increase and the pressure reduction induced by isoprenaline.
*The pulse increase and the pressure reduction induced by the
administration of isoprenaline alone are referred to as 100%.

Series [1] can be described thus: Acute toxicity in rat (LD50, 50% lethal dose). As to conditions: in vivo, rat (Wister strain). As to the method: Also, the acute toxicity in rat (Wister strain) was determined in a standard manner with respect to representative compounds of this invention.

In the case of `CC(C)NCC(O)COc1cccc2[nH]c(=O)ccc12` (centres unmarked) [5-(2-hydroxy-3-isopropylamino)propoxycarbostyril], in the series with isoprenaline (30 γ/Kg from the femoral vein), the “Antagonistic Activity Against Isoprenaline (% Inhibition), Blood Pressure” value was determined as 89.2% and the “Antagonistic Activity Against Isoprenaline (% Inhibition), Pulse” value is recorded as 87.6%. Moreover, in series [1] (iv, i.v., read-out: LD50 i.v.), the LD50 was determined as 162 mg/kg. For the same molecule, in series [1] (po, p.o., read-out: LD50 p.o.), the LD50 is 2000 mg/kg.
As to `CC(C)(C)NCC(O)COc1cccc2[nH]c(=O)ccc12` (centres unmarked) [5-(2-hydroxy-3-tert-butylamino)propoxycarbostyril], the “Antagonistic Activity Against Isoprenaline (% Inhibition), Blood Pressure” value in the series on isoprenaline (30 γ/Kg from the femoral vein) came out at 97.9%. Also, the “Antagonistic Activity Against Isoprenaline (% Inhibition), Pulse” value in the series on isoprenaline (30 γ/Kg from the femoral vein) is 96.1%. The LD50 was determined as 136 mg/kg in series [1] (iv, i.v., read-out: LD50 i.v.) and 1800 mg/kg in series [1] (po, p.o., read-out: LD50 p.o.).
On to `CC(C)NCC(O)COc1cccc2ccc(=O)[nH]c12` (centres unmarked) [8-(2-hydroxy-3-isopropylamino)propoxycarbostyril], for which, in the series with isoprenaline (100 γ/Kg from the femoral vein), the “Antagonistic Activity Against Isoprenaline (% Inhibition), Blood Pressure” value is listed as 66.2% and the “Antagonistic Activity Against Isoprenaline (% Inhibition), Pulse” value is recorded as 57.4%. Further, the LD50 in series [1] (iv, i.v., read-out: LD50 i.v.) worked out at 178 mg/kg. Moreover, the LD50 in series [1] (po, p.o., read-out: LD50 p.o.) came out at 2000 mg/kg.
On to `CCC(C)NCC(O)COc1cccc2ccc(=O)[nH]c12` (centres unmarked) [8-(2-hydroxy-3-sec-butylamino)propoxycarbostyril], for which, in the series with isoprenaline (100 γ/Kg from the femoral vein), the “Antagonistic Activity Against Isoprenaline (% Inhibition), Blood Pressure” value is 51.8% and the “Antagonistic Activity Against Isoprenaline (% Inhibition), Pulse” value was determined as 42.1%. Also, in series [1] (iv, i.v., read-out: LD50 i.v.), the LD50 turned out to be 143 mg/kg. The LD50 in series [1] (po, p.o., read-out: LD50 p.o.) was found to be 1900 mg/kg.
For `CC(C)(C)NCC(O)COc1cccc2ccc(=O)[nH]c12` (centres unmarked) [8-(2-hydroxy-3-tert-butylamino)propoxycarbostyril], in that order: 78.3%, 72.6%, 148 mg/kg and 1800 mg/kg.
